Laboratory results published in patent US11011273B2, “Pathway analysis for identification of diagnostic tests” (Nantomics, LLC, priority 2013, dated 2021).

Tests used:
Assay type in all cases: cell-based
NCIH23 = assay: Treatment effectiveness (GI50) on cell line NCIH23; conditions: Homo sapiens, NCI-H23; data point 240, FIG. 2; read-out: sensitivity class from GI50 treatment effectiveness value
From the text: (§1) There are many ways to derive and measure treatment effectiveness data 136 for a particular treatment. For example, effectiveness data can be derived by administering the evaluated treatment to each and every diseased cell line, and measure the effect of the evaluated treatment on each diseased cell line. The measurement can be based on an amount of drug needed to obtain a threshold inhibition effect of the disease in the cell line (e.g., the amount of drug needed to reduce the activities of the disease by half).
(§2) FIG. 2 illustrates a graph 200 showing a graphical representation of an example set of treatment effectiveness data 136 that represents how effective NANT3456 is on a set of cell lines. NANT3456 is described in more detail in WO/2014/071378, published May 8, 2014, which is incorporated by reference herein. In some embodiments, the data points on FIG. 2 represent distinct cell lines from different tissues, distinct cell lines from the same tissue, or any combination thereof. Further, the cell lines may be derived from a single host, multiple distinct hosts, or any combination. In this example, NANT3456 is known to be capable of treating diseases associated with the set of cell lines (e.g., cell lines MV411, TT, AN3CA, K562, PC3, HCT116, ASPC1, MDAMB231, TF1, NCIH23, MIAPACA2, HS766T, CAPAN2, A549, HT29, U937, BXPC3, CAPAN1, and SU8686). […]

[1] = system: set of cell lines (MV411, TT, AN3CA, K562, PC3, HCT116, ASPC1, MDAMB231, TF1, NCIH23, MIAPACA2, HS766T, CAPAN2, A549, HT29, U937, BXPC3, CAPAN1, SU8686); assay: Treatment effectiveness (GI50) of NANT3456 on a set of cell lines; conditions: median over all cell lines of FIG. 2; dotted line 220
From the text: as §1, §2

cell line MV411 = assay: Treatment effectiveness (GI50) on cell line MV411; conditions: Homo sapiens, MV4-11; data point 225, FIG. 2; read-out: sensitivity class from GI50 treatment effectiveness value
From the text: as §1, §2

cell line CAPAN1 = assay: Treatment effectiveness (GI50) on cell line CAPAN1; conditions: Homo sapiens, CAPAN-1; data point 250, FIG. 2; read-out: sensitivity class from GI50 treatment effectiveness value
From the text: as §1, §2

cell line TT = assay: Treatment effectiveness (GI50) on cell line TT; conditions: data point 230, FIG. 2; read-out: sensitivity class from GI50 treatment effectiveness value
From the text: as §1, §2

cell line PC3 = assay: Treatment effectiveness (GI50) on cell line PC3; conditions: data point 235, FIG. 2; read-out: sensitivity class from GI50 treatment effectiveness value
From the text: as §1, §2

cell line HT29 = assay: Treatment effectiveness (GI50) on cell line HT29; conditions: Homo sapiens, HT-29; data point 245, FIG. 2; read-out: sensitivity class from GI50 treatment effectiveness value
From the text: as §1, §2

**Q.** How did the GI50 (NCIH23) turn out when C/C=C/c1cc(Nc2cc(N3CCN(C)CC3)nc(Oc3cc(F)c4[nH]c(C)cc4c3F)n2)n[nH]1 [NANT3456] was run?
**A.** > 50.1 nM

**Q.** What about the “threshold effectiveness value (median value of all treatment effectiveness values, GI50)” value [1] of the same molecule?
**A.** 1.7 log10 units of nanomolar drug

**Q.** What about the GI50 (cell line MV411) of the same molecule?
**A.** < 50.1 nM

**Q.** What about the GI50 (cell line CAPAN1) of the same molecule?
**A.** > 50.1 nM

**Q.** What about the GI50 (cell line TT) of the same molecule?
**A.** < 50.1 nM

**Q.** And the GI50 (cell line PC3)?
**A.** < 50.1 nM

**Q.** What about the GI50 sensitivity class (cell line HT29) of the same molecule?
**A.** > 50.1 nM
